In ChEMBL document CHEMBL3045380, “Effects of a prenyl-baicalein derivative on ER (+) MCF-7 and ER () MDA-MB-231 breast tumor cell lines” (2012):
Calls of active or inactive are those of the source. The calls are words filed in the database; no cut-off is given here.

What was measured:
[1] = system: MDA-MB-231; assay: Cytotoxicity against Homo sapiens (human) ER-deficient MDA-MB-231 cells grown in RPMI medium at 3.13 to 100 uM after 48 hr by SRB assay; format: functional, cell-based
[2] = system: MCF7; assay: Cytotoxicity against Homo sapiens (human) MCF-7 cells expressing ER after 48 hr by SRB assay; format: functional
[3] = system: MCF-7; assay: Antagonist activity at estrogen receptor in Homo sapiens (human) MCF-7 cells assessed as inhibition of 17betaestradiol-induced [3H]thymidine incorporation at 0.1 to 0.78 uM aftestrogen receptor 72 hr by liquid scintillation counting; format: cell-based
[4] = system: MCF-7; assay: Antagonist activity at estrogen receptor in Homo sapiens (human) MCF-7 cells assessed as potentiation of 4-hydroxytamoxifen-induced reduction in [3H]thymidine incorporation aftestrogen receptor 72 hr by liquid scintillation counting; format: cell-based
[5] = system: MCF-7; assay: Antagonist activity at estrogen receptor in Homo sapiens (human) MCF-7 cells assessed as potentiation of fluvestrant-induced reduction in [3H]thymidine incorporation at 3.13 to 6.25 uM aftestrogen receptor 72 hr by liquid scintillation counting; format: cell-based
[6] = system: MDA-MB-231; assay: Antiproliferative activity against Homo sapiens (human) ER-deficient MDA-MB-231 cells grown in steroid free RPMI medium assessed as inhibition of [3H]thymidine incorporation at 3.13 to 100 uM after 72 hr by liquid scintillation counting; format: functional, cell-based
[7] = system: MDA-MB-231; assay: Cytotoxicity against Homo sapiens (human) ER-deficient MDA-MB-231 cells grown in steroid free RPMI medium at 3.13 to 100 uM after 72 hr by SRB assay; format: functional, cell-based
[8] = system: MCF-7; assay: Inhibition of estrogen receptor in Homo sapiens (human) MCF-7 cells grown in RPMI medium assessed as cell death at 3.13 to 100 uM aftestrogen receptor 48 hr by SRB assay; format: cell-based
[9] = system: MCF-7; assay: Agonist activity at estrogen receptor in Homo sapiens (human) MCF-7 cells grown in stestrogen receptoroid free RPMI medium assessed as incorporation of [3H]thymidine at 0.1 to 0.2 uM aftestrogen receptor 72 hr by liquid scintillation counting; format: cell-based
[10] = system: MDA-MB-231; assay: Cytotoxicity against Homo sapiens (human) ER-deficient MDA-MB-231 cells after 48 hr by SRB assay; format: functional
[11] = system: MCF-7; assay: Antagonist activity at estrogen receptor in Homo sapiens (human) MCF-7 cells grown in stestrogen receptoroid free RPMI medium assessed as inhibition of [3H]thymidine incorporation at 3.13 to 100 uM aftestrogen receptor 72 hr by liquid scintillation counting; format: cell-based
[12] = system: MCF7; assay: Inhibition of ER in Homo sapiens (human) MCF-7 cells grown in steroid free RPMI medium assessed as cell death at 3.13 to 100 uM after 72 hr by SRB assay; format: functional, cell-based

CC(C)=CCOc1cc2oc(-c3ccccc3)cc(=O)c2c(O)c1O
Activity [1]: Active | Activity [2]: Dose-dependent effect | GI50 ([2]; MCF7, 48 h): 11.2 µM | inhibition [3]: Active | Activity [4]: Dose-dependent effect | Activity [5]: Active | Activity [6]: Active | Activity [7]: Active | inhibition [8]: inactive | Activity [9]: Active | Activity [10]: Dose-dependent effect | GI50 ([10]; MDA-MB-231, 48 h): 29.7 µM | inhibition [11]: Active | inhibition [12]: Active
